Consider five compounds from paper PMC3945819, “Ligand-Dependent Dynamics of the Active-Site Lid in Bacterial Dimethylarginine Dimethylaminohydrolase” (Biochemistry, 2014).

For one series, the target named is T1, MDCC-Asp244Cys TM-PaDDAH (Pseudomonas aeruginosa, UniProt Q9I4E3, C249S/D244C/R40E/R98H).
T1 construct: polyhistidine (cleaved yes); made in house; host or cells: Escherichia coli BL21 (DE3)
T1 sequence (Q9I4E3 1-254 R40E/R98H/D244C/C249S): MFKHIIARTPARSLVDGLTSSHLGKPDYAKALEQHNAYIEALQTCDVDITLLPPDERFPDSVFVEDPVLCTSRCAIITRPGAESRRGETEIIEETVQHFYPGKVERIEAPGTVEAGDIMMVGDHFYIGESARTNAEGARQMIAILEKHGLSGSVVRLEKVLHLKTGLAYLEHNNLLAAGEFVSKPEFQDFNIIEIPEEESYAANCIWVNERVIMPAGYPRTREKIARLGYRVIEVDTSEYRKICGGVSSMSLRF
Kind of series: MDCC fluorescence titration, Asp244Cys variant. Type of series: binding. The following applies: static MDCC fluorescence titration, 25 °C, buffer A; fluorescence decreased; read-out: equilibrium dissociation constant. The method, then:
(§1) DM- or TM-PaDDAH constructs were mutated to contain an additional, solvent-exposed Cys residue at residue positions corresponding to Thr19, Ser 20, Ser84, and Asp244. Following expression, the purified proteins were each incubated in buffer A with 1 mM dithiothreitol (DTT) for 0.5 h. The sample was then passed through a desalting PD-10 column (GE Healthcare) in buffer A and concentrated to 100 μM. N-[2-(1-Maleimidyl)ethyl]-7-(diethylamino)coumarin-3-carboxamide (MDCC)[32] dissolved in DMF (20 mM) was added to a 2-fold excess, and the solution was incubated for 1 h. The reaction mixture was passed again through a fresh desalting column to remove unreacted label. The labeled protein concentration was measured by spectrophotometry (ε430 (MDCC) = 46 800 M^–1 cm^–1, ε280(MDCC) = 7470 M^–1 cm^–1, ε280(PaDDAH) = 18 910 M^–1 cm^–1). Formation of the product was assessed by electrospray ionization mass spectrometry.
(§2) PaDDAH fluorescence spectra were measured at 25 °C on an FP-6300 spectrofluorometer (Jasco Ltd.) in buffer A. MDCC fluorescence was excited at 430 nm and emission was recorded at 476 nm. The change in fluorescence emission intensity with ligand concentration was fit to a 1:1 binding isotherm using nonlinear least-squares Python code written in-house.

The target in series [1] is T2, MDCC-Ser20Cys TM-PaDDAH (fl-TM-PaDDAH) (Pseudomonas aeruginosa, UniProt Q9I4E3, C249S/R40E/R98H/S20C).
T2 construct: polyhistidine (cleaved yes); made in house; host or cells: Escherichia coli BL21 (DE3)
T2 sequence (Q9I4E3 1-254 S20C/R40E/R98H/C249S): T1 sequence (Q9I4E3 1-254 R40E/R98H/D244C/C249S) with S20C, C244D
The experiment in a line: Stopped-flow fluorescence binding kinetics with fl-TM-PaDDAH. Here is the method:
(§3) Stopped-flow experiments were carried out in buffer A at 25 °C using a HiTech SF61 DX2 stopped-flow instrument equipped with a Xe/Hg lamp (TgK Scientific, UK). MDCC fluorescence was excited at 436 nm, and emission was detected by a photomultiplier after a 455 nm cutoff filter (Schott glass). Protein (1 μM) was mixed with the ligand (ADMA or L-citrulline) at various concentrations up to 4 mM. In the mixing cell, concentrations were half these. Each fluorescence time course was fitted to a single exponential function [drawing 1] with the observed first-order rate constant, kobs, and maximum fluorescence change, ΔFmax.
(§4) For mixing L-citrulline with MDCC-Ser20Cys TM-PaDDAH (fl-TM-PaDDAH), the dependence of kobs on L-citrulline concentration ([L-cit]) was linearly fitted for the association reaction: [drawing 2] [drawing 3] For the mixing of L-citrulline with MDCC-Ser20Cys DM-PaDDAH (fl-DM-PaDDAH) conversion of the substrate to products is included, using this reaction scheme: [drawing 4] [drawing 5] where kcat is the rate constant for the conversion of the enzyme–substrate complex to dissociated products. Under the pseudo-first-order conditions of the experiment, where the change in fluorescence was attributed to the formation of the fl-DM-PaDDAH/ADMA complex, the dependence of kobs on ADMA concentration was fitted to a straight-line graph: [drawing 6]

For series [2], the target named is T2, MDCC-Ser20Cys TM-PaDDAH (fl-TM-PaDDAH). Kind of series: MDCC fluorescence titration, Ser20Cys variant. Type of series: binding. The method, then:
as §1, §2

A further series addresses wild-type PaDDAH. To be noted: wild-type protein; read-out: Ki^(L-cit); cited from earlier work.
In a further series the target is T3, MDCC-Thr19Cys TM-PaDDAH (Pseudomonas aeruginosa, UniProt Q9I4E3, C249S/R40E/R98H/T19C).
T3 construct: polyhistidine (cleaved yes); made in house; host or cells: Escherichia coli BL21 (DE3)
T3 sequence (Q9I4E3 1-254 T19C/R40E/R98H/C249S): T1 sequence (Q9I4E3 1-254 R40E/R98H/D244C/C249S) with T19C, C244D
Kind of series: MDCC fluorescence titration, Thr19Cys variant. Type of series: binding. The following applies: static MDCC fluorescence titration, 25 °C, buffer A; fluorescence decreased; read-out: equilibrium dissociation constant. Here is the method:
as §1, §2

Series [3] has as its target T4, MDCC-Ser20Cys DM-PaDDAH (fl-DM-PaDDAH) (Pseudomonas aeruginosa, UniProt Q9I4E3, R40E/R98H/S20C).
T4 construct: the 254 residue DM-PaDDAH; polyhistidine (cleaved yes); made in house; host or cells: Escherichia coli BL21 (DE3)
T4 sequence (Q9I4E3 1-254 S20C/R40E/R98H): T1 sequence (Q9I4E3 1-254 R40E/R98H/D244C/C249S) with S20C, C244D, S249C
The experiment in a line: Stopped-flow fluorescence binding kinetics with fl-DM-PaDDAH. Here is the method:
as §3, §4

The target of series [4] is T5, DM-PaDDAH (Arg40Glu/Arg98His double mutant PaDDAH) (Pseudomonas aeruginosa, UniProt Q9I4E3, R40E/R98H).
T5 construct: the 254 residue DM-PaDDAH; polyhistidine (cleaved yes); made in house; host or cells: Escherichia coli BL21 (DE3)
T5 sequence (Q9I4E3 1-254 R40E/R98H): T1 sequence (Q9I4E3 1-254 R40E/R98H/D244C/C249S) with C244D, S249C
The experiment in a line: NMR 15N,1H-HSQC ligand titration of DM-PaDDAH. To be noted: for binding of byproduct to the protein by NMR titration: separate NMR titrations. The format is binding. Here is the method:
(§5) For NMR measurements, the protein samples were prepared at 0.8 mM concentration (for resonance assignments and relaxation measurements) or 0.3 mM (for ligand titrations) in buffer A, supplemented with 10% v/v D2O. Saturating concentrations of L-citrulline were included in the bound state samples: 15 mM for DM-PaDDAH and 1.0 mM for TM-PaDDAH. A variety of NMR spectrometers were used during this work: resonance assignments were obtained from 3D triple resonance data sets (HNCA, HNCACB, CBCACONH, HNCO, HN(CA)CO)[12] obtained at either 600 or 700 MHz ^1H frequency. Two-dimensional ^15N, ^1H-HSQC experiments to monitor ligand binding were recorded using a 700 MHz instrument. ^15N relaxation measurements[13],[14] were performed at both 600 and 800 MHz. The majority of the data sets were recorded using a cryogenically cooled triple resonance probe, with the sample temperature maintained at a calibrated 25 °C. The pulse sequences employed H2O-selective “flip-back” pulses and WATERGATE to minimize the effects of H^N-resonance cross-saturation.[15],[16] Ligand-induced chemical shift perturbations differences for ligand titrations were computed using the formula Δδ = [(Δδ^1H^N)^2 + (Δδ^15N/5)^2]^1/2.

The next series addresses T6, MDCC-Ser84Cys TM-PaDDAH (Pseudomonas aeruginosa, UniProt Q9I4E3, C249S/R40E/R98H/S84C).
T6 construct: polyhistidine (cleaved yes); made in house; host or cells: Escherichia coli BL21 (DE3)
T6 sequence (Q9I4E3 1-254 R40E/S84C/R98H/C249S): T1 sequence (Q9I4E3 1-254 R40E/R98H/D244C/C249S) with S84C, C244D
Kind of series: MDCC fluorescence titration, Ser84Cys variant. The format is binding. To be noted: static MDCC fluorescence titration, 25 °C, buffer A; fluorescence decreased; read-out: equilibrium dissociation constant. The method, then: as §1, §2

The target in series [5] is T7, TM-PaDDAH (Arg40Glu/Arg98His/Cys249Ser triple mutant PaDDAH) (Pseudomonas aeruginosa, UniProt Q9I4E3, C249S/R40E/R98H).
T7 construct: polyhistidine (cleaved yes); made in house; host or cells: Escherichia coli BL21 (DE3)
T7 sequence (Q9I4E3 1-254 R40E/R98H/C249S): T1 sequence (Q9I4E3 1-254 R40E/R98H/D244C/C249S) with C244D
The experiment in a line: NMR 15N,1H-HSQC ligand titration of TM-PaDDAH. The following applies: NMR peak intensity titration (Gly24, Glu158, Lys159), 0.3 mM TM-PaDDAH, 25 °C; read-out: dissociation constant KD^(TM/L-cit). Type of series: binding. Here is the method:
as §5

For another series, the target named is Cys249 (UniProt position 249, DGGVSCMSLRF). To be noted: ligand-free (absence of ligand); cited from earlier work.
Another series relates to unmodified DM-PaDDAH. To be noted: estimated previously for unmodified DM-PaDDAH; cited from earlier work.
The target of another series is T8, TM-PaDDAH (Pseudomonas aeruginosa, UniProt Q9I4E3, C249S/R40E/R98H).
T8 construct: polyhistidine (cleaved yes); made in house; host or cells: Escherichia coli BL21 (DE3)
T8 sequence (Q9I4E3 1-254 R40E/R98H/C249S): T1 sequence (Q9I4E3 1-254 R40E/R98H/D244C/C249S) with C244D
Kind of series: Substrate conversion by TM-PaDDAH observed by 1D 1H NMR. Type of series: biochemical. The following applies: conversion of ADMA to DMA and L-citrulline, high TM-PaDDAH concentration, over hours. Here is the method:
as §5

Residue numbers refer to the chain shown, from its start. Entries after “also recorded” stand apart in the source; their conditions may differ.

On to `NC(=O)NCCC[C@H](N)C(=O)O` [L-citrulline], for which the Kd is 23.5 ± 2.7 µM on MDCC-Asp244Cys TM-PaDDAH; 8.4 µM in [1] (from stopped-flow binding kinetics, read-out: predicted equilibrium dissociation constant KD^(TM/L-cit) (= koff/kon)); 7.2 ± 1.6 µM in [2] (static MDCC fluorescence titration, 25 °C, buffer A, fluorescence increased, read-out: equilibrium dissociation constant); 10.8 ± 1.1 µM on MDCC-Thr19Cys TM-PaDDAH; 3600 ± 100 µM in [4] (NMR chemical shift titration, 0.3 mM DM-PaDDAH, 1:1 model, buffer A pH 7.0, 25 °C, read-out: dissociation constant KD^(DM/L-cit)); 15.7 ± 2.8 µM on MDCC-Ser84Cys TM-PaDDAH. The Kd in series [5] amounted to 3.5 ± 1.5 µM. Besides, the koff was 0.86 s⁻¹ in series [1] (stopped-flow, linear fit of kobs vs concentration, 25 °C, read-out: koff^(TM/L-cit)); roughly 500 s⁻¹ in series [4] (from NMR KD and assumed kon similar to kon^(TM/L-cit) and kon^(DM/ADMA), read-out: koff^(DM/L-cit) predicted). Further, the kon in series [1] (stopped-flow, linear fit of kobs vs concentration, 25 °C, read-out: kon^(TM/L-cit)) was found to be 100000 M⁻¹ s⁻¹. The inhibition constant (Ki) (in general, the dissociation constant of the complex between target and ligand, obtained from inhibition or displacement) at wild-type PaDDAH is 8400 µM. Besides, in series [3], the “fluorescence signal for binding to fl-DM-PaDDAH” value is reported as “no signal for binding”.

On to `CN` [methylamine], for which, in series [4], the “binding of byproduct to the protein by NMR titration” value is “did not detectably bind”.

In the case of “Dimethylarginine dimethylaminohydrolase (PaDDAH) (Pseudomonas aeruginosa)”, the pKa (in general, the negative logarithm of the acid dissociation constant) with Cys249 is reported as 8.8.

`CNC` [dimethylamine]: the “binding of byproduct to the protein by NMR titration” value in [4] is reported as “did not detectably bind”.

For the compound `CN(C)C(=N)NCCCC(N)C(=O)O` (stereo not drawn) [ADMA, asymmetric N^η,N^η-dimethylarginine], in the series on unmodified DM-PaDDAH, the kcat is 0.5 s^–1. Further, the “fluorescence response / binding of substrate to fl-TM-PaDDAH” value in series [2] (low protein concentrations of fluorescence experiments) is on record as “no fluorescence change; also recorded: no evidence of substrate binding or turnover”. For the same compound, in series [3] (KD^(DM/ADMA) versus KD^(DM/L-cit)), the “binding tighter than for the reaction product L-citrulline” value came out at 30 fold. Besides, in series [3] (assuming kcat = 0.5 s^–1), the “koff^(DM/ADMA)” value turned out to be 2.0 s^–1. Besides, the “kon^(DM/ADMA)” value in series [3] (stopped-flow, linear fit of kobs vs concentration, 25 °C) is recorded as 1.8 × 10^5 M^–1 s^–1. Also, on TM-PaDDAH, the “catalytic activity of the mutant enzyme” value is listed as roughly 0.04 h^–1.
